Data on eleven compounds can be found in US8975401B2, “Quinazoline based EGFR inhibitors containing a zinc binding moiety” (Curis, Inc., priority 2006, dated 2015).

Read-outs that look alike come from different tables or passages of the source.

One data set has as its system HDAC. Nature of the data set: HDAC fluorimetric enzyme assay (Biomol AK-500, HeLa nuclear extract). In kind it is biochemical. The method, then: HDAC inhibitors were screened using an HDAC fluorimetric assay kit (AK-500, Biomol, Plymouth Meeting, Pa.).
Each assay was setup as follows: Defrosted all kit components and kept on ice until use. […] Prepared dilutions of Trichostatin A (TSA, positive control) and tested compounds in assay buffer (5× of final concentration). Diluted Fluor de Lys™ Substrate in assay buffer to 100 uM (50 fold=2× final). Diluted Fluor de Lys™ developer concentrate 20-fold (e.g. 50 μl plus 950 μl Assay Buffer) in cold assay buffer. Second, diluted the 0.2 mM Trichostatin A 100-fold in the 1× Developer (e.g. 10 μl in 1 ml; final Trichostatin A concentration in the 1× Developer=2 μM; final concentration after addition to HDAC/Substrate reaction=1 μM). Added Assay buffer, diluted trichostatin A or test inhibitor to appropriate wells of the microtiter plate. Added diluted HeLa extract or other HDAC sample to all wells except for negative controls.

Data set [1] concerns the target T1, human EGFR (His672-Ala1210) (Homo sapiens, UniProt P00533).
T1 construct: human EGFR (His672-Ala1210); GST (N); purchased Cell Signaling Technologies; host or cells: baculovirus expression system
Nature of the data set: HTScan EGF Receptor Kinase Assay. Format: biochemical. The note with it: for activity in EFGR enzyme assay compared with erlotinib: FIG. 1. The method, then: The ability of compounds to inhibit receptor kinase (EGFR) activity was assayed using HTSCAN™ EGF Receptor Kinase Assay Kits (Cell Signaling Technologies, Danvers, Mass.). […] The protein was purified by one-step affinity chromatography using glutathione-agarose.
Immediately transfer enzyme from −80° C. to ice. Allowed enzyme to thaw on ice. […] Returned immediately to ice. […] Incubated reaction plate at room temperature for 30 minutes. […] Added 100 μl/well primary antibody. Incubated at room temperature for 60 minutes. […] Added 100 μl/well diluted antibody. Incubated at room temperature for 30 minutes. […] Incubated at room temperature for 5 minutes.

The next data set has as its target VEGFR (Homo sapiens, UniProt P35968). In words: VEGFR assay (Table B). In kind it is biochemical.
For the next data set, the system named is A549 NSCLC Xenograft. Nature of the data set: A549 NSCLC xenograft model. In kind it is in vivo, mice. The settings on record: FIG. 11A, 11B. The method, then: (§1) A representative protocol for the in vivo experiment is as followed:
(§2) 1-10×10^6 human cancer cells were implanted subcutaneously to the athymic (nu/nu) mice. When the tumors reached about 100 mm^3 in volume, the mice were treated with the compound by tail vein infusion. Routinely 5 groups (8-12 mice per group) are needed for a typical efficacy study, including one negative control, one positive control, and three testing groups for 3 dose levels of the same compound. Usually a 7-7-5 (on-off-on) regimen was used for one typical study. The tumor size was measured with an electronic caliper and body weight measured with a scale twice weekly. The tumors were removed from euthanized mice at the end of the study. One half of each tumor was frozen in dry ice and stored at −80° C. for PK or Western blot analysis. The other half was fixed with formalin. The fixed tissues were processed, embedded in paraffin and sectioned for immunohistochemistry staining

In data set [2] the test system is HPAC pancreatic cancer cells. Nature of the data set: HPAC pancreatic cancer xenograft. Format: in vivo, mice. The settings on record: 120 mg/kg in 30% CAPTISOL (iv/ip) daily vs 50 mg/kg erlotinib (po); FIG. 12A. The method, then:
as §1, §2

Data set [3] has as its system HDAC in MDA-MB-468 breast cancer cell line. Nature of the data set: Inhibition of HDAC in cells (Ac-H4, Ac-H3 accumulation), FIG. 2. In kind it is cell-based. The note with it: MDA-MB-468, FIG. 2.
A further data set relates to cancer cell lines. Nature of the data set: Anti-proliferative activity in various cancer cell lines (general statements, FIG. 3). The note with it: lung, breast, prostate, colon, pancreas cell lines. In kind it is cell-based. The method, then:
Cell Proliferation Assay:
Cancer cell lines were plated at 5,000 to 10,000 per well in 96-well flatted bottomed plates with various concentration of compounds. The cells were incubated with compounds for 72 hours in the presence of 0.5% of fetal bovine serum. Growth inhibition was accessed by adenosine triphosphate (ATP) content assay using Perkin Elmer ATPlite kit. ATPlite is an ATP monitoring system based on firefly luciferase. Briefly, 25 μl of mammalian cell lysis solution was added to 50 μl of phenol red-free culture medium per well to lyse the cells and stabilize the ATP. 25 μl of substrate solution was then added to the well and subsequently the luminescence was measured.

A short description of data set [4]: Pharmacokinetic study in rats (plasma). In kind it is in vivo. The settings on record: 20 and 60 mg/kg iv, hydrochloride salt in 30% CAPTISOL, FIG. 14. As for the experimental part:
Compound was administered via an intravenous (iv) infusion.
Rat: 20 mg/kg for 5 min i.v. infusion
Plasma samples were prepared by protein precipitation. An internal standard was added into plasma samples. […] The supernatant was then injected onto LC/MS/MS.
Samples were compared to standards made in plasma. These standards were prepared by serial dilution.

Data set [5] deals with EGFR in MDA-MB-468 breast cancer cell line. Nature of the data set: Inhibition of EGFR phosphorylation in cells, FIG. 2. In kind it is cell-based. The note with it: MDA-MB-468, FIG. 2. As for the experimental part: (b) An In Vitro Assay which Determines the Ability a Test Compound to Inhibit the EGF-Stimulated EGFR Phosphorylation.
Allowed A431 cell growth in a T75 flask using standard tissue culture procedures until cells reach near confluency (˜1.5×10^7) cells; D-MEM, 10% FBS). Under sterile conditions dispensed 100 μl of the cell suspension per well in 96-well microplates (x cells plated per well). Incubated cells and monitor cell density until confluency is achieved with well-to-well consistency; approximately three days. Removed complete media from plate wells by aspiration or manual displacement. Replaced media with 50 μl of pre-warmed serum free media per well and incubated 4 to 16 hours. Made two fold serial dilutions of inhibitor using pre-warmed D-MEM so that the final concentration of inhibitor range from 10 μM to […]. Removed media from A431 cell plate. Added 100 μl of serial diluted inhibitor into cells and incubate 1 to 2 hours. Removed inhibitor from plate wells by aspiration or manual displacement. Added either serum free media for resting cells (mock) or serum free media with 100 ng/ml EGF. Used 100 μl of resting/activation media per well. Allowed incubation at 37° C. for 7.5 minutes. Removed activation or stimulation media manually or by aspiration. Immediately fixed cells with 4% formaldehyde in 1×PBS. […]

Data set [6] in a line: Pharmacokinetic study in mice (plasma, lung, colon). The note with it: salt in 30% CAPTISOL
Procedure: (§3) Samples were compared to standards made in plasma. These standards were prepared by serial dilution. An internal standard was added into the plasma with standard.
(§4) Tissues were homogenized in 0.8 ml water.
On data set [7], the source says:
B. Filtration of the Solution
C. Preparation of a Lyophilisate
The source holds these as a separate data set.

The conditions of data set [8]: mouse, in vivo.
Procedure: as §3, §4

T1 sequence (P00533 672-1210): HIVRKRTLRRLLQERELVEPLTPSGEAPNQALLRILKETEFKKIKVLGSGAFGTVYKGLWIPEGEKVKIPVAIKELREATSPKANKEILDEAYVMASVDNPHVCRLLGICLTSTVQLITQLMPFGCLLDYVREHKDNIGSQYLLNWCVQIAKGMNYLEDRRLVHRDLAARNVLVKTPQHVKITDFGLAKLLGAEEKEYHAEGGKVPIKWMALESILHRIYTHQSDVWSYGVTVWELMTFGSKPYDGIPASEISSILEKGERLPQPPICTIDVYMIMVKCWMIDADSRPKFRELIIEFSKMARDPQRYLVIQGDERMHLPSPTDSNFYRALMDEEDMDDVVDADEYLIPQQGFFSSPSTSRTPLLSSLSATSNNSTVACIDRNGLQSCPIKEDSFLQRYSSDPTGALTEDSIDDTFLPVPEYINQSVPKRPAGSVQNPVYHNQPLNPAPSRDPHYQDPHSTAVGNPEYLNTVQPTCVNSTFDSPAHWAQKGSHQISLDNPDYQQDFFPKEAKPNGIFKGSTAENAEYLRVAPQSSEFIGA
VEGFR, sequence (P35968 20-1356): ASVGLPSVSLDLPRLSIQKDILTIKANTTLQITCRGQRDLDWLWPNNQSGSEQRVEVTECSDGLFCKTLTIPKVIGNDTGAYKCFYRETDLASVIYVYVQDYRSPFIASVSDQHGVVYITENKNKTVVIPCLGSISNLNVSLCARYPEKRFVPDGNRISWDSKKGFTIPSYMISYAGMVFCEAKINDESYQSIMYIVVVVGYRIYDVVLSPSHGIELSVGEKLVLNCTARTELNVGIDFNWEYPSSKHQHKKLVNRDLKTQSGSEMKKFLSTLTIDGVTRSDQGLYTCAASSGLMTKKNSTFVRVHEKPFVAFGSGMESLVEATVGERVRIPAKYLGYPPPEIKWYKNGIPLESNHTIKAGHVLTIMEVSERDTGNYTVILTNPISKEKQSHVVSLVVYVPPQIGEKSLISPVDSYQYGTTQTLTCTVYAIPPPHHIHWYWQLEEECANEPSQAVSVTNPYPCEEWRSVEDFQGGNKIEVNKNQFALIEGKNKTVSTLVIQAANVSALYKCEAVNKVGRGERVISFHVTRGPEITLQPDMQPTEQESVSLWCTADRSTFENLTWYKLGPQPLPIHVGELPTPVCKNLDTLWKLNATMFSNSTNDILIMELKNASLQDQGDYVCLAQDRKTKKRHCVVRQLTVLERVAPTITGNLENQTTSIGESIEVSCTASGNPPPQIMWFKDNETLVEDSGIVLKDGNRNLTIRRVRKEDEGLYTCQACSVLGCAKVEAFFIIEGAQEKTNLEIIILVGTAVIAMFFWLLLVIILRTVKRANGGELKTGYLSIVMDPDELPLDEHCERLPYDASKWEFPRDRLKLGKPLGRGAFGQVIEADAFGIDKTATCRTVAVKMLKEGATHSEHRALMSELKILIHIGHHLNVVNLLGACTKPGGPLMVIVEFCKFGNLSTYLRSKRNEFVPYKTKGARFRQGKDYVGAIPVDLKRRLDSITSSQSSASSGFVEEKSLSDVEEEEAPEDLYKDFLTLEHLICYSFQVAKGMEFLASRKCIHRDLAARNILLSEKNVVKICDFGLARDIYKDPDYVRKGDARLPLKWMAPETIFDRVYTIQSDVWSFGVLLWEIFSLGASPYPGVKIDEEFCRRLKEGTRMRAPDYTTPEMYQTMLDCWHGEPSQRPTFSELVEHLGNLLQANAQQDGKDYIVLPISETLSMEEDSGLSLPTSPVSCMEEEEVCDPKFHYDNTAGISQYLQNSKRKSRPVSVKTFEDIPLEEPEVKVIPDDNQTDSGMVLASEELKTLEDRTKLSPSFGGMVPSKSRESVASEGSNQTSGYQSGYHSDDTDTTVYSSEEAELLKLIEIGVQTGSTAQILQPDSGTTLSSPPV

What is called IC50 is the concentration at which inhibition is half-maximal. Take `COc1cc2ncnc(Nc3ccc(F)c(Cl)c3)c2cc1OCCCCCCC(=O)NO` [Compound 6, 7-(4-(3-Chloro-4-fluorophenylamino)-7-methoxyquinazolin-6-yloxy)-N-hydroxyheptanamide]: the “activity in HDAC enzyme assay compared with SAHA” value in the data set with HDAC (FIG. 1) is “more active than erlotinib and SAHA”. In data set [1], the IC50 is less than 100 nM; the “activity in EFGR enzyme assay compared with erlotinib” value was “more active than erlotinib and SAHA”. Also, the IC50 at VEGFR lay in the range of 100 to 1000 nM.
As to `C#Cc1cccc(Nc2ncnc3cc(OC)c(OCCCCCCC(=O)NO)cc23)c1` [Compound 12, 7-(4-(3-ethynylphenylamino)-7-methoxyquinazolin-6-yloxy)-N-hydroxyheptanamide], the “effect on tumor growth / tumor size” value in the data set on A549 NSCLC Xenograft is recorded as “attenuated tumor growth”. The “attenuation of tumor growth” value in data set [2] was “greater attenuation of tumor growth than either erlotinib (po) or vehicle”. Also, the “histone acetylation (Ac-H3/Ac-H4) compared with SAHA” value in [3] was “improvement in inhibition of histone acetylation”. Further, the “activity in EFGR enzyme assay compared with erlotinib” value in data set [1] is “more active than erlotinib and SAHA”. In addition, the “anti-proliferative potency compared with SAHA, Erlotinib and their combination” value with cancer cell lines was “responded better to compound 12 than a combination of erlotinib and SAHA”. Moreover, the “dose proportionality of plasma concentration” value in [4] is recorded as “proportional to the dose”. The “inhibition of EGFR phosphorylation compared with Erlotinib” value in [5] is “improvement in inhibition of histone acetylation and EGFR phosphorylation”.
As to `COc1cc2ncnc(N[C@H](C)c3ccccc3)c2cc1OCCCCCCC(=O)NO` [Compound 79, (R)—N-hydroxy-7-(7-methoxy-4-(1-phenylethylamino)quinazolin-6-yloxy)heptanamide], on VEGFR, the IC50 is more than 10000 nM.
As for `COc1cc2ncnc(NCc3ccccc3)c2cc1OCCCCCCC(=O)NO` [Compound 85, 7-(4-(Benzylamino)-7-methoxyquinazolin-6-yloxy)-N-hydroxyheptanamide], the values for the half-maximal inhibitory concentration (IC50) (in [1]; against VEGFR) were less than 100 nM and 1000 to 10000 nM, respectively.
In general, melting point refers to the temperature, or range, at which the solid turns liquid. The compound `C#Cc1cccc(Nc2ncnc3cc(OC)c(OCCCCCCC(=O)NOC)cc23)c1` [Compound 95, 7-(4-(3-ethynylphenylamino)-7-methoxyquinazolin-6-yloxy)-N-methoxyheptanamide] had a melting point of 195.8 to 197 °C.
On HDAC, `COc1cc2ncnc(Nc3ccc(F)c(Cl)c3)c2cc1SCCCCC(=O)NO` [Compound 151] registered a half-maximal inhibitory concentration (IC50) of less than 100 nM.
Take `COc1cc2ncnc(Nc3ccc(F)c(Cl)c3)c2cc1SCCCCCCC(=O)NO` [Compound 155]: the IC50 at HDAC was less than 100 nM.
In the case of `C#Cc1cccc(Nc2ncnc3cc(OCCOC)c(OCCOC)cc23)c1` [Erlotinib, reference compound], the “effect on tumor growth / tumor size” value in the data set on A549 NSCLC Xenograft is given as “did not significantly affect tumor size”.
In the case of Citric Acid, the “IV Tissue” value in data set [6] was “Low”.
A word on the Solubility: it is how much of the substance goes into solution per volume. A high value points to much dissolved substance. For Sodium, in data set [7], the “Chemical stability in diluted solution” value is more than 12 h, the “Dilution with D5W” value was more than 10x and the Solubility is 7500 µg/mL. Further, the pH in data set [7] (salt in 30% CAPTISOL) was 10-11. Further, in data set [8], the “IV Tissue” value is recorded as “High”.
For Tartaric Acid, in [8], the “IV Tissue” value is given as “High”.
